{
  "source": "ChEMBL document CHEMBL1128024",
  "about": "“Carbocyclic analogues of hydroxyethylamine containing inhibitors of HIV proteinase” (Bioorg Med Chem Lett, 1994)",
  "key": {"[1]": {"molecular_target": "Human immunodeficiency virus type 1 protease (Human immunodeficiency virus 1, UniProt Q72874)", "experiment": "Inhibitory activity against HIV-1 Protease was determined"}, "[2]": {"system": "Human immunodeficiency virus", "experiment": "In vitro antiviral activity against human immuno deficiency virus was determined", "assay_type": "functional, organism-based", "settings": "Human immunodeficiency virus 1"}},
  "data": [
    {"smiles": "CC(C)(C)NC(=O)[C@@H]1CCCCN1C[C@@H](O)[C@H](Cc1ccccc1)NC(=O)[C@H](CC(N)=O)NC(=O)c1ccc2ccccc2n1", "values": [
      {"measurement": "IC50", "setting": "[1]", "value": 2, "unit": "nM"},
      {"measurement": "IC50", "setting": "[2]", "value": 17, "unit": "nM"}
    ]},
    {"smiles": "CC(C)(C)NC(=O)[C@@H]1CCCCN1C[C@@H](O)[C@H](Cc1ccccc1)NC(=O)[C@H](CC(N)=O)NC(=O)OCc1ccccc1", "values": [
      {"measurement": "IC50", "setting": "[2]", "value": 300, "unit": "nM"}
    ]},
    {"smiles": "CC(C)(C)NC(=O)[C@@H]1CCCC[C@H]1C[C@@H](O)[C@H](Cc1ccccc1)NC(=O)[C@H](CC(N)=O)NC(=O)OCc1ccccc1", "note": "(mixture of isomers)", "values": [
      {"measurement": "IC50", "setting": "[2]", "value": 40, "unit": "nM"}
    ]},
    {"smiles": "CC(C)(C)NC(=O)[C@@H]1CCCC[C@@H]1C[C@@H](O)[C@H](Cc1ccccc1)NC(=O)[C@H](CC(N)=O)NC(=O)OCc1ccccc1", "values": [
      {"measurement": "IC50", "setting": "[2]", "value": 1000, "unit": "nM"}
    ]},
    {"smiles": "CC(C)(C)NC(=O)[C@@H]1C[C@@H]2CCCCC2CN1C[C@@H](O)[C@H](Cc1ccccc1)NC(=O)[C@H](CC(N)=O)NC(=O)c1ccc2ccccc2n1", "note": "(single isomer, unassigned)", "values": [
      {"measurement": "IC50", "setting": "[2]", "value": 2, "unit": "nM"}
    ]},
    {"smiles": "CC(C)(C)NC(=O)[C@@H]1CCCC[C@H]1C[C@@H](O)[C@H](Cc1ccccc1)NC(=O)[C@H](CC(N)=O)NC(=O)c1ccc2ccccc2n1", "values": [
      {"measurement": "IC50", "setting": "[2]", "value": 4, "unit": "nM"}
    ]}
  ]
}
